Assays:
Human tumor cells = assay: Soft Agar Assay (anchorage-independent growth); type: cell-based; settings: colony outgrowth in soft agar, stated as a range for the group
In short: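 Tumor cells suspended in 0.3% agarose over a 0.6% agarose base, both layers containing the same farnesyl transferase inhibitor concentration. Incubated 10-16 days at 37° C, 5% CO2; colonies stained with MTT (1 mg/mL in PBS) and counted, IC50 determined.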

Row | Compound | melting point [°C] | IC50 (Human tumor cells) [nM]
1 | Cc1cn(C[C@@H]2CCCN(C(=O)[C@H]3CN([C@H]4c5ccc(Cl)cc5CCc5cc(Br)cnc54)CCN3C(=O)Cc3ccc(F)cc3)C2)cn1 [Example 197] | 105 to 110 | 0.05 to 30
2 | Cc1cn(CC2CCCN(C(=O)C3CN(C4c5ccc(Cl)cc5CCc5cc(Cl)cnc54)CCN3C(=O)OC(C)(C)C)C2)cn1 (stereo not shown) [Example 230] | 121 to 127 | 0.05 to 30
3 | Cn1cncc1CC1CCCN(C(=O)C2CN(C3c4ccc(Cl)cc4CCc4cccnc43)CCN2C(=O)OC2CCCCC2)C1 (stereo not shown) [47(K)] | 101 to 123 | 0.05 to 30
4 | Cc1cn(C[C@H]2CCCN(C(=O)[C@H]3CN([C@H]4c5ccc(Cl)cc5CCc5cc(Cl)cnc54)CCN3C(=O)OC3CCCCC3)C2)cn1 [Example 257] | 115 to 128 | 0.05 to 30
5 | Cc1cn(CC2CCCN(C(=O)C3CN(C4c5ccc(Cl)cc5CCc5cccnc54)CCN3C(=O)OC(C)(C)C)C2)cn1 (stereo not shown) [Example 28] | 115 to 132 | 0.5 to 30
6 | CCc1cn(CC2CCCN(C(=O)C3CN(C4c5ccc(Cl)cc5CCc5cccnc54)CCN3C(=O)OC(C)(C)C)C2)cn1 (stereo not shown) [35(A)] | 110 to 112 | 0.05 to 30
7 | Cc1cn(C[C@@H]2CCCN(C(=O)[C@H]3CN([C@H]4c5ccc(Cl)cc5CCc5cc(Cl)cnc54)CCN3C(=O)OC(C)(C)C)C2)cn1 [Example 227] | 100 to 116 | 0.05 to 30
8 | CC(C)(C)NC(=O)N1CCN([C@@H]2c3ccc(Cl)cc3CCc3cc(Br)cnc32)C[C@@H]1C(=O)N1CCC[C@@H](Cn2ccnc2)C1 [Example 16] | 148 to 153 | 0.5 to 30
9 | CC(C)(C)OC(=O)N1CCN(C2c3ccc(Cl)cc3CCc3cccnc32)CC1C(=O)N1CCCC(Cn2ccnc2)C1 (stereo not shown) [Example 24] | 115 to 126 | 0.5 to 30
10 | O=C(C1CN(C2c3ccc(Cl)cc3CCc3cccnc32)CCN1C(=O)OC1CCCCC1)N1CCCC(Oc2cccnc2)C1 (stereo not shown) [47(U)] | 117 to 120 | 0.05 to 30
11 | Cc1nccn1CC1CCCN(C(=O)C2CN(C3c4ccc(Cl)cc4CCc4cc(Br)cnc43)CCN2C(=O)OC(C)(C)C)C1 (stereo not shown) [Example 3] | 126 to 131 | 0.5 to 30
12 | CCc1cn(CC2CCCN(C(=O)C3CN(C4c5ccc(Cl)cc5CCc5cccnc54)CCN3C(=O)OC3CCCCC3)C2)cn1 (stereo not shown) [47(D)] | 66 to 68 | 0.05 to 30
13 | Cc1cn(C[C@H]2CCCN(C(=O)[C@H]3CN([C@H]4c5ccc(Cl)cc5CCc5cc(Cl)cnc54)CCN3C(=O)OC(C)(C)C)C2)cn1 [Example 229] | 102 to 113 | 0.05 to 30
14 | CC(C)(C)OC(=O)N1CCN([C@H]2c3ccc(Cl)cc3CCc3cc(Br)cnc32)C[C@@H]1C(=O)N1CCC[C@@H](Cn2ccnc2)C1 [Example 13] | 127 to 130 | 0.5 to 30
15 | Cc1nccn1C[C@H]1CCCN(C(=O)[C@H]2CN([C@H]3c4ccc(Cl)cc4CCc4cccnc43)CCN2C(=O)NC(C)(C)C)C1 [Example 48] | 111 to 140 | 0.5 to 30
16 | Cc1cn(CC2CCCN2C(=O)C2CN(C3c4ccc(Cl)cc4CCc4cccnc43)CCN2C(=O)OC(C)(C)C)cn1 (stereo not shown) [35(F)] | 115 to 120 | 0.05 to 30
17 | Cc1cn(C[C@@H]2CCCN(C(=O)[C@H]3CN([C@@H]4c5ccc(Cl)cc5CCc5cc(Cl)cnc54)CCN3C(=O)OC(C)(C)C)C2)cn1 [Example 228] | 115 to 128 | 0.05 to 30
18 | Cc1cn(C[C@@H]2CCCN(C(=O)[C@H]3CN([C@@H]4c5ccc(Cl)cc5CCc5cc(Cl)cnc54)CCN3C(=O)OC3CCCCC3)C2)cn1 [Example 256] | 122 to 128 | 0.05 to 30
19 | Cc1nccn1CC1CCCN(C(=O)C2CN(C3c4ccc(Cl)cc4CCc4cccnc43)CCN2C(=O)OC(C)(C)C)C1 (stereo not shown) [Example 26] | 120 to 132 | 0.5 to 30
20 | CC(C)OC(=O)N1CCN([C@@H]2c3ccc(Cl)cc3CCc3cc(Br)cnc32)C[C@@H]1C(=O)N1CCC[C@@H](Cn2ccnc2)C1 [Example 14] | 126 to 128 | 0.5 to 30
21 | Cc1cn(CC2CCCN(C(=O)C3CN(C4c5ccc(Cl)cc5CCc5cc(Br)cnc54)CCN3C(=O)OC(C)(C)C)C2)cn1 (stereo not shown) [Example 4.1] | 114 to 121 | 0.5 to 30
22 | CC(C)OC(=O)N1CCN(C2c3ccc(Cl)cc3CCc3cccnc32)CC1C(=O)N1CCCC(Oc2cccnc2)C1 (stereo not shown) [41(C)] | 104 to 108 | 0.05 to 30
23 | CN1CCN(C(=O)C2CN(C3c4ccc(Cl)cc4CCc4cc(Br)cnc43)CCN2C(=O)OC(C)(C)C)CC1Cn1ccnc1 (stereo not shown) [Example 5] | 123 to 134 | 0.5 to 30

Next, values leading:

Row | melting point [°C] | IC50 (Human tumor cells) [nM] | Compound
24 | 110 to 116 | 0.05 to 30 | Cc1cn(C[C@@H]2CCCN(C(=O)[C@H]3CN([C@@H]4c5ccc(Cl)cc5CCc5cc(F)cnc54)CCN3C(=O)OC(C)(C)C)C2)cn1 [Example 260]
25 | 117 to 125 | 0.05 to 30 | Cc1cn(C[C@H]2CCCN(C(=O)[C@H]3CN([C@@H]4c5ccccc5CCc5cc(Cl)cnc54)CCN3C(=O)OC3CCCCC3)C2)cn1 [Example 322]
26 | 122 to 126 | 0.05 to 30 | Cc1cn(C[C@H]2CCCN(C(=O)[C@H]3CN([C@@H]4c5ccc(Cl)cc5CCc5cc(F)cnc54)CCN3C(=O)OC(C)(C)C)C2)cn1 [Example 262]
27 | 115 to 120 | 0.05 to 30 | Cc1cn(C[C@@H]2CCCN(C(=O)[C@H]3CN([C@@H]4c5ccccc5CCc5cc(Cl)cnc54)CCN3C(=O)OC3CCCCC3)C2)cn1 [Example 320]
28 | 126 to 135 | 0.05 to 30 | Cc1cn(C[C@@H]2CCCN(C(=O)[C@H]3CN([C@H]4c5ccc(Cl)cc5CCc5cc(F)cnc54)CCN3C(=O)OC(C)(C)C)C2)cn1 [Example 259]
29 | 109 to 124 | 0.05 to 30 | Cc1cn(C[C@@H]2CCCN(C(=O)[C@H]3CN([C@H]4c5ccccc5CCc5cc(Br)cnc54)CCN3C(=O)OC(C)(C)C)C2)cn1 [Example 323]
30 | 128 to 134 | 0.05 to 30 | Cc1cn(C[C@@H]2CCCN(C(=O)[C@H]3CN([C@@H]4c5ccc(Cl)cc5CCc5cc(F)cnc54)CCN3C(=O)OC3CCCCC3)C2)cn1 [Example 288]
31 | 108 to 113 | 0.05 to 30 | Cc1cn(C[C@@H]2CCCN(C(=O)[C@H]3CN([C@@H]4c5ccc(Cl)cc5CCc5ccc[n+]([O-])c54)CCN3C(=O)OC3CCCCC3)C2)cn1 [Example 388]
32 | 103 to 115 | 0.05 to 30 | Cc1cn(C[C@@H]2CCCN(C(=O)[C@H]3CN([C@H]4c5ccc(Cl)cc5CCc5cccnc54)CCN3C(=O)OCC(C)(C)C)C2)cn1 [Example 411]
33 | 115 to 128 | 0.05 to 30 | Cc1cn(C[C@H]2CCCN(C(=O)[C@H]3CN([C@@H]4c5ccc(Cl)cc5CCc5cc(Cl)cnc54)CCN3C(=O)OC3CCCCC3)C2)cn1 [Example 258]
34 | 120 to 126 | 0.05 to 30 | Cc1cn(C[C@H]2CCCN(C(=O)[C@H]3CN([C@H]4c5ccc(Cl)cc5CCc5cc(F)cnc54)CCN3C(=O)OC3CCCCC3)C2)cn1 [Example 289]
35 | 121 to 127 | 0.05 to 30 | Cc1cn(C[C@H]2CCCN(C(=O)[C@H]3CN([C@H]4c5ccccc5CCc5cc(Br)cnc54)CCN3C(=O)OC3CCCCC3)C2)cn1 [Example 353]

From patent publication US6362188B1, “Farnesyl protein transferase inhibitors” (Schering Corporation, priority 1998, dated 2002)
